In ChEMBL document CHEMBL1124371, “A novel solution-stable, water-soluble prodrug type for drugs containing a hydroxyl or an NH-acidic group” (J Med Chem, 1989):

Organism: Homo sapiens
Test: Ester prodrugs: T1/2 in human plasma
Format: ADME
Conditions: not given

| T1/2 | SMILES |
| --- | --- |
| 28 min | CCN(CC)Cc1cccc(C(=O)OCn2c(=O)oc3ccc(Cl)cc32)c1 |

Same assay, conditions: human, in vitro

| SMILES | T1/2 |
| --- | --- |
| O=C(OCn1ncc2c(=O)[nH]cnc21)c1ccc(CN2CCOCC2)cc1 | 1.9 min |
| CCCNCc1cccc(C(=O)OCC(=O)[C@@]2(O)CCC3C4CCC5=CC(=O)CCC5(C)C4C(O)CC32C)c1 (stereo not given in full) | 38 min |
| O=C(OCn1ncc2c(=O)[nH]cnc21)c1cccc(Cn2ccnc2)c1 | 3.6 min |
| CC(=O)Nc1ccc(OC(=O)c2ccc(CN(C)C)cc2)cc1 | 87 min |
| CCN(CC)Cc1cccc(C(=O)OCN2C(=O)NC(c3ccccc3)(c3ccccc3)C2=O)c1 | 20 min |
| CC12CCC(=O)C=C1CCC1C2C(O)CC2(C)C1CC[C@]2(O)C(=O)COC(=O)c1ccc(CN2CCOCC2)cc1 (stereo not given in full) | 92 min |
| Cc1ncc([N+](=O)[O-])n1CCOC(=O)c1ccc(CN(C)C)cc1 | 4.7 min |
| CCN(CC)CCN(CC)Cc1cccc(C(=O)OCC(=O)[C@@]2(O)CCC3C4CCC5=CC(=O)CCC5(C)C4C(O)CC32C)c1 (stereo not given in full) | 8 min |
| CNCc1cccc(C(=O)OCC(=O)[C@@]2(O)CCC3C4CCC5=CC(=O)CCC5(C)C4C(O)CC32C)c1 (stereo not given in full) | 25 min |
| CCN(CC)Cc1cccc(C(=O)OCn2cnc3c2c(=O)n(C)c(=O)n3C)c1 | 0.4 min |
| CCN(CC)Cc1ccc(C(=O)OCC(=O)[C@@]2(O)CCC3C4CCC5=CC(=O)CCC5(C)C4C(O)CC32C)cc1 (stereo not given in full) | 107 min |
| Nc1nc(O)c2ncn(COCCOC(=O)c3ccc(CN4CCOCC4)cc3)c2n1 | 3.7 min |
| CCN(CC)Cc1cccc(C(=O)OCC(=O)[C@@]2(O)CCC3C4CCC5=CC(=O)CCC5(C)C4C(O)CC32C)c1 (stereo not given in full) | 34 min |
| C[C@H]1CC2C(C(O)CC3(C)C2CC[C@]3(O)C(=O)COC(=O)c2cccc(CN(C)CCN(C)C)c2)C2(C)C=CC(=O)C=C12 (stereo not given in full) | 18 min |
| Cn1c(=O)c2c(ncn2COC(=O)c2cccc(Cn3ccnc3)c2)n(C)c1=O | 0.9 min |
| CN(C)Cc1ccc(C(=O)OCn2ncc3c(=O)[nH]cnc32)cc1 | 9.4 min |

More lines, now with the values ahead:

| T1/2 | SMILES |
| --- | --- |
| 487 min | CC(=O)Nc1ccc(OC(=O)c2ccc(CN3CCN(C)CC3)cc2)cc1 |
| 15 min | CN1CCN(Cc2cccc(C(=O)OCC(=O)[C@@]3(O)CCC4C5CCC6=CC(=O)CCC6(C)C5C(O)CC43C)c2)CC1 (stereo not given in full) |
| 8.5 min | O=C(OCn1ncc2c(=O)[nH]cnc21)c1cccc(CN2CCOCC2)c1 |
| 2.4 min | Cc1ncc([N+](=O)[O-])n1CCOC(=O)c1ccc(CN2CCN(C)CC2)cc1 |
| 62 min | CC12CCC(=O)C=C1CCC1C2C(O)CC2(C)C1CC[C@]2(O)C(=O)COC(=O)c1cccc(CN2CCOCC2)c1 (stereo not given in full) |
| 0.9 min | CCN(CC)CCN(CC)Cc1cccc(C(=O)OCC(NC(=O)C(Cl)Cl)C(O)c2ccc([N+](=O)[O-])cc2)c1 (stereo not given) |
| 8 min | CCN(CC)Cc1cccc(C(=O)OCC(NC(=O)C(Cl)Cl)C(O)c2ccc([N+](=O)[O-])cc2)c1 (stereo not given) |
| 0.5 min | CN1CCN(Cc2cccc(C(=O)OCn3ncc4c(=O)[nH]cnc43)c2)CC1 |
| 55 min | O=C(OCC(NC(=O)C(Cl)Cl)C(O)c1ccc([N+](=O)[O-])cc1)c1cccc(CN2CCOCC2)c1 (stereo not given) |
| 0.6 min | Cc1ncc([N+](=O)[O-])n1CCOC(=O)c1cccc(CN2CCN(C)CC2)c1 |
| 147 min | CN1CCN(Cc2ccc(C(=O)OCC(=O)[C@@]3(O)CCC4C5CCC6=CC(=O)CCC6(C)C5C(O)CC43C)cc2)CC1 (stereo not given in full) |
| 2.8 min | Cn1c(=O)c2c(ncn2COC(=O)c2cccc(CN3CCOCC3)c2)n(C)c1=O |
| 5 min | CN1CCN(Cc2cccc(C(=O)OCC(NC(=O)C(Cl)Cl)C(O)c3ccc([N+](=O)[O-])cc3)c2)CC1 (stereo not given) |
| 5 min | Cc1ncc([N+](=O)[O-])n1CCOC(=O)c1cccc(CN2CCOCC2)c1 |
| 0.4 min | Cc1ncc([N+](=O)[O-])n1CCOC(=O)c1ccc(CN2CCOCC2)cc1 |
| 56 min | CC(=O)Nc1ccc(OC(=O)c2cccc(CN3CCOCC3)c2)cc1 |
| 15 min | CCN(CC)CCN(CC)Cc1cccc(C(=O)Oc2ccc(NC(C)=O)cc2)c1 |
| 0.4 min | CN1CCN(Cc2cccc(C(=O)OCn3cnc4c3c(=O)n(C)c(=O)n4C)c2)CC1 |
| 7 min | CN1CCN(Cc2cccc(C(=O)OCN3C(=O)NC(c4ccccc4)(c4ccccc4)C3=O)c2)CC1 |
| 29 min | C[C@H]1CC2C(C(O)CC3(C)C2CC[C@]3(O)C(=O)COC(=O)c2cccc(CN3CCN(C)CC3)c2)C2(C)C=CC(=O)C=C12 (stereo not given in full) |
| 11 min | CN1CCN(Cc2ccc(C(=O)OCn3ncc4c(=O)[nH]cnc43)cc2)CC1 |
| 27 min | CC(=O)Nc1ccc(OC(=O)c2cccc(CN3CCN(C)CC3)c2)cc1 |
| 18 min | CN1CCN(Cc2cccc(C(=O)OCC(=O)[C@@]3(O)CCC4C5CCC6=CC(=O)C=CC6(C)C5C(O)CC43C)c2)CC1 (stereo not given in full) |
